# Source: article PMC11243672, “New 3-(Dibenzyloxyphosphoryl)isoxazolidine Conjugates of N1-Benzylated Quinazoline-2,4-diones as Potential Cytotoxic Agents against Cancer Cell Lines” (Molecules, 2024)
# Key:
# [1] = system: breast cancer cells (MCF-7); assay: MTS-based cytotoxicity assay, MCF-7; assay type: cell-based, human; conditions: 72 h treatment, 0.205–50 μM, mean ± SEM
# Method: (§1) In this study, we applied the most extensively used MTS-based assay, which provides a valuable tool for determining cell viability by evaluating metabolic activity. The cytostatic activity of the tested compounds was defined as the half-maximal inhibitory concentration (IC50) causing a 50% decrease in the metabolic activity of the cells. It was determined against breast cancer (MCF-7), fibrosarcoma (HT-1080), and prostate cancer (PC-3) cells.
# (§2) The tested compounds were tested against three different human cancer cell lines (breast adenocarcinoma MCF-7 ATCC® HTB-22^TM, fibrosarcoma HT-1080 ATCC® CCL121^TM, and prostate adenocarcinoma PC-3 ATCC® CRL-1435^TM). For the cell viability experiment, cells were seeded in transparent 96-well plates (FALCON no. 353072, Corning, Durham, NC, USA) in MEM (Gibco no. 31095-029, UK) supplemented with 10% heat-inactivated FBS (Gibco no. 10500-064, UK). The cell seeding density was as follows: MCF-7 12,000 cells/well, HT-1080 7000 cells/well, PC-3 10,000 cells/well. Cells were seeded one day before treatment with the tested compounds and cultured overnight. The confluence on the treatment day was around 30%. The tested compounds were dissolved in DMSO as 10 mM stock solutions and kept under −4 °C. On the day of experimentation, the medium was removed and replaced with a fresh one that contained the following: (1) dimethylsulfoxide (DMSO < 0.1%, vehicle control (Veh)); (2) increasing the concentration of compounds (0.205–50 μM, performed as a 2.5-fold serial dilution for dose–response analysis). Treatment with compounds was carried out for 72 h. Each treatment was replicated three times in a single experiment, with three separate experiments conducted. (n = 9). When significant variability in the results occurred, an additional test was performed on certain compounds. During the incubation, the cells were examined under an inverted microscope to check if the compounds had not precipitated in the culture medium. The inhibitory effect of compounds on the cell was examined using an MTS-based assay (Promega, Madison, WI, USA) following the manufacturer’s protocol. The absorbance was measured at 490 nm using Tecan Spark’s multimode plate reader (Tecan, Männedorf, Switzerland). A reference wavelength of 630 nm was used to subtract the background. IC50 values were calculated by fitting a non-linear regression to a sigmoidal dose–response curve in GraphPad Prism version 8.0.1.
# [2] = system: fibrosarcoma cells (HT-1080); assay: MTS-based cytotoxicity assay, HT-1080; assay type: cell-based, human; conditions: 72 h treatment, 0.205–50 μM, mean ± SEM
# Method: as §1, §2
# [3] = system: prostate cancer cells (PC-3); assay: MTS-based cytotoxicity assay, PC-3; assay type: cell-based, human; conditions: 72 h treatment, 0.205–50 μM, mean ± SEM
# Method: as §1, §2
# [4] = system: colorectal adenoma cancer cell line (HT-29); set-up: method as in doi:10.1016/j.tet.2006.12.076; conditions: cancer cell line growth inhibition; cited from earlier work
# HCT-116 = system: HCT-116; set-up: method as in PMID 37903949; conditions: cytotoxic activity; cited from earlier work
# [5] = system: human embryonic kidney cells (HEK293); assay: Safety study in vitro (MTS viability), HEK293; assay type: cell-based; conditions: 0.205–50 μM, 72 h
# Method: (§3) In drug development, particular attention should be paid to studying the safety profile of compounds. Promising drug candidates should not cause adverse effects on essential organ systems like the liver, kidney, or healthy cells in general. Systemic toxicity of the compound is the main factor limiting its therapeutic application and efficiency. In our study, a preliminary study on nephrotoxicity and hepatotoxicity was evaluated in human embryonic kidney cells (HEK293, ATCC® CRL1573™) and human hepatoma cells (HepG2, ATCC® HB8065™), respectively. HEK293 is commonly used to evaluate the cytotoxicity of nephrotoxic compounds [42]. HepG2 is a well-established in vitro human cell system to study liver toxicity. We also used healthy human skin fibroblast (HSF) to extend the cytotoxicity profile. All three cell lines were cultured in DMEM (Gibco no. 61965-026, UK) supplemented with 10% FBS (Gibco no. 10500-064, UK). For the experiment, cells were seeded (8 × 10^3 cells/100μL/well) in transparent 96-well plates (FALCON no. 353072, Corning, Durham, […], USA) and cultured overnight. […] DOX was a reference compound that adversely affected the liver, kidney, and healthy cells. Treatment with compounds was carried out for 72 h. Cell viability was examined using an MTS-based CellTiter96® AQueous One Solution Cell Proliferation Assay (Promega, Madison, WI, USA) following the manufacturer’s protocol.
# [6] = system: human hepatoma cells (HepG2); assay: Safety study in vitro (MTS viability), HepG2; assay type: cell-based; conditions: 0.205–50 μM, 72 h
# Method: as §3
# [7] = system: human skin fibroblast (HSF); assay: Safety study in vitro (MTS viability), HSF; assay type: cell-based; conditions: 0.205–50 μM, 72 h
# Method: as §3
SMILES,"IC50 ([1]; Homo sapiens, MCF7, 72 h) [µM]","IC50 ([2]; Homo sapiens, HT-1080, 72 h) [µM]","IC50 ([3]; Homo sapiens, 72 h) [µM]",also measured
"O=c1c2ccccc2n(C[C@@H]2C[C@@H](P(=O)(OCc3ccccc3)OCc3ccccc3)N(Cc3ccccc3)O2)c(=O)n1Cc1ccc(F)cc1 (relative stereo) [trans-16d, Dibenzyl cis- and trans-5-((3-(4-fluorobenzyl)-3,4-dihydro-2,4-dioxoquinazolin-1(2H)-yl)methyl)-2-benzylisoxazolidin-3-yl-3-phosphonate]",88.9 ± 3.86,35.6 ± 3.03,13.9 ± 2.14,–
CO[C@@]12[C@H](COC(N)=O)C3=C(C(=O)C(C)=C(N)C3=O)N1C[C@@H]1N[C@@H]12 [Mitomycin C],–,–,–,"GI, HT-29 [4]: 31%"
"O=c1c2ccccc2n(CC2CC(P(=O)(OCc3ccccc3)OCc3ccccc3)N(Cc3ccccc3)O2)c(=O)n1Cc1cccc([N+](=O)[O-])c1 (stereo not drawn) [cis-16f/trans-16f (96:4), Dibenzyl cis- and trans-2-benzyl-5-((3-(3-nitrobenzyl)-2,4-dioxo-3,4-dihydroquinazolin-1(2H)-yl)methyl)isoxazolidin-3-yl)phosphonate]",91.7 ± 1.47,17.1 ± 5.73,24.8 ± 2.15,–
O=C(O)c1ccc(NC(=S)NC(=O)c2ccc(-n3c(=O)[nH]c4ccccc4c3=O)cc2)cc1 [Compound 13],–,–,–,IC50 (HCT-116): 1.18 ± 0.06 µM
"O=c1c2ccccc2n(CC2CC(P(=O)(OCc3ccccc3)OCc3ccccc3)N(Cc3ccccc3)O2)c(=O)n1Cc1ccccc1[N+](=O)[O-] (stereo not drawn) [cis-16e/trans-16e (70:30), Dibenzyl cis- and trans-(2-benzyl-5-((3-(2-nitrobenzyl)-2,4-dioxo-3,4-dihydroquinazolin-1(2H)-yl)methyl)isoxazolidin-3-yl)phosphonate]",59.1 ± 3.77,59.6 ± 0.36,26.6 ± 4.69,–
"O=c1c2ccccc2n(C[C@@H]2C[C@@H](P(=O)(OCc3ccccc3)OCc3ccccc3)N(Cc3ccccc3)O2)c(=O)n1Cc1ccc([N+](=O)[O-])cc1 (relative stereo) [trans-16g, Dibenzyl cis- and trans-(2-benzyl-5-((3-(4-nitrobenzyl)-2,4-dioxo-3,4-dihydroquinazolin-1(2H)-yl)methyl)isoxazolidin-3-yl)phosphonate]",142 ± 5.11,16.6 ± 3.11,16.7 ± 3.48,–
"O=c1c2ccccc2n(CC2CC(P(=O)(OCc3ccccc3)OCc3ccccc3)N(Cc3ccccc3)O2)c(=O)n1Cc1ccccc1F (stereo not drawn) [cis-16b/trans-16b (90:10), Dibenzyl cis- and trans-5-((3-(2-fluorobenzyl)-3,4-dihydro-2,4-dioxoquinazolin-1(2H)-yl)methyl)-2-benzylisoxazolidin-3-yl-3-phosphonate]",104 ± 7.38,27.3 ± 5.43,11.2 ± 1.99,"Cell viability, HEK293 [5]: did not affect cell viability; Cell viability, HepG2 [6]: did not affect cell viability; Cell viability, HSF [7]: no adverse effect was observed"
"O=c1c2ccccc2n(CC2CC(P(=O)(OCc3ccccc3)OCc3ccccc3)N(Cc3ccccc3)O2)c(=O)n1Cc1ccc(F)cc1 (stereo not drawn) [cis-16d/trans-16d (96:4), Dibenzyl cis- and trans-5-((3-(4-fluorobenzyl)-3,4-dihydro-2,4-dioxoquinazolin-1(2H)-yl)methyl)-2-benzylisoxazolidin-3-yl-3-phosphonate]",116 ± 5.73,10.4 ± 2.69,16.4 ± 3.69,–
"O=c1c2ccccc2n(CC2CC(P(=O)(OCc3ccccc3)OCc3ccccc3)N(Cc3ccccc3)O2)c(=O)n1Cc1ccccc1 (stereo not drawn) [trans-16a, Dibenzyl cis- and trans-2-benzyl-5-((3-benzyl-3,4-dihydro-2,4-dioxoquinazolin-1(2H)-yl)methyl)isoxazolidin-3-yl-3-phosphonate]",–,–,–,IC50 [1]: 96 ± 4.66 µM; IC50 [2]: 40.5 ± 5.44 µM; IC50 [3]: 12.7 ± 3.45 µM
"O=c1c2ccccc2n(C[C@@H]2C[C@@H](P(=O)(OCc3ccccc3)OCc3ccccc3)N(Cc3ccccc3)O2)c(=O)n1Cc1cccc([N+](=O)[O-])c1 (relative stereo) [trans-16f, Dibenzyl cis- and trans-2-benzyl-5-((3-(3-nitrobenzyl)-2,4-dioxo-3,4-dihydroquinazolin-1(2H)-yl)methyl)isoxazolidin-3-yl)phosphonate]",59.4 ± 0.78,23.1 ± 9.22,18.1 ± 0.98,–
"O=c1c2ccccc2n(CC2CC(P(=O)(OCc3ccccc3)OCc3ccccc3)N(Cc3ccccc3)O2)c(=O)n1Cc1cccc(F)c1 (stereo not drawn) [cis-16c/trans-16c (90:10), Dibenzyl cis- and trans-5-((3-(3-fluorobenzyl)-3,4-dihydro-2,4-dioxoquinazolin-1(2H)-yl)methyl)-2-benzylisoxazolidin-3-yl-3-phosphonate]",238 ± 20.7,20.5 ± 1.56,17.6 ± 6.21,–
"O=c1c2ccccc2n(C[C@@H]2C[C@@H](P(=O)(OCc3ccccc3)OCc3ccccc3)N(Cc3ccccc3)O2)c(=O)n1Cc1ccccc1[N+](=O)[O-] (relative stereo) [trans-16e, Dibenzyl cis- and trans-(2-benzyl-5-((3-(2-nitrobenzyl)-2,4-dioxo-3,4-dihydroquinazolin-1(2H)-yl)methyl)isoxazolidin-3-yl)phosphonate]",57.9 ± 8.36,29.8 ± 4.75,26.6 ± 1.09,–
"O=c1c2ccccc2n(C[C@@H]2C[C@@H](P(=O)(OCc3ccccc3)OCc3ccccc3)N(Cc3ccccc3)O2)c(=O)n1Cc1cccc(F)c1 (relative stereo) [trans-16c, Dibenzyl cis- and trans-5-((3-(3-fluorobenzyl)-3,4-dihydro-2,4-dioxoquinazolin-1(2H)-yl)methyl)-2-benzylisoxazolidin-3-yl-3-phosphonate]",130 ± 9.97,42.3 ± 3.48,16.4 ± 4.32,–
"O=c1c2ccccc2n(CC2CC(P(=O)(OCc3ccccc3)OCc3ccccc3)N(Cc3ccccc3)O2)c(=O)n1Cc1ccc([N+](=O)[O-])cc1 (stereo not drawn) [cis-16g/trans-16g (88:12), Dibenzyl cis- and trans-(2-benzyl-5-((3-(4-nitrobenzyl)-2,4-dioxo-3,4-dihydroquinazolin-1(2H)-yl)methyl)isoxazolidin-3-yl)phosphonate]",116 ± 9.69,16.4 ± 2.03,21.5 ± 4.63,–
"O=c1c2ccccc2n(CC2CC(P(=O)(OCc3ccccc3)OCc3ccccc3)N(Cc3ccccc3)O2)c(=O)n1Cc1ccccc1 (stereo not drawn) [cis-16a/trans-16a (97:3), Dibenzyl cis- and trans-2-benzyl-5-((3-benzyl-3,4-dihydro-2,4-dioxoquinazolin-1(2H)-yl)methyl)isoxazolidin-3-yl-3-phosphonate]",90.3 ± 4.57,–,12.6 ± 5.56,"IC50 [2]: 19.9 ± 8.13 µM; Cell viability, HEK293 [5]: did not affect cell viability; Cell viability, HepG2 [6]: did not affect cell viability; Cell viability, HSF [7]: no adverse effect was observed"
"COc1cccc2c1C(=O)c1c(O)c3c(c(O)c1C2=O)C[C@@](O)(C(=O)CO)C[C@@H]3O[C@H]1C[C@H](N)[C@H](O)[C@H](C)O1 [Doxorubicin, reference compound]",–,–,–,"Cell viability, HEK293 [5]: significant cytotoxic effect; Cell viability, HepG2 [6]: significant cytotoxic effect; Cell viability, HSF [7]: significant cytotoxic effect"
